Experimental data from US8637509B2, “Azaindazoles” (GlaxoSmithKline LLC, priority 2010, dated 2014).
Like-named read-outs stand apart in the source and are kept apart here.

Molecular target: T1, EZH2 (Homo sapiens, UniProt Q15910)
T1 construct: GRITS37108
Assay: EZH2 methyltransferase SPA assay (3H-SAM, Hela nucleosomes)
Assay type: biochemical

T1 sequence (Q15910 whole entry): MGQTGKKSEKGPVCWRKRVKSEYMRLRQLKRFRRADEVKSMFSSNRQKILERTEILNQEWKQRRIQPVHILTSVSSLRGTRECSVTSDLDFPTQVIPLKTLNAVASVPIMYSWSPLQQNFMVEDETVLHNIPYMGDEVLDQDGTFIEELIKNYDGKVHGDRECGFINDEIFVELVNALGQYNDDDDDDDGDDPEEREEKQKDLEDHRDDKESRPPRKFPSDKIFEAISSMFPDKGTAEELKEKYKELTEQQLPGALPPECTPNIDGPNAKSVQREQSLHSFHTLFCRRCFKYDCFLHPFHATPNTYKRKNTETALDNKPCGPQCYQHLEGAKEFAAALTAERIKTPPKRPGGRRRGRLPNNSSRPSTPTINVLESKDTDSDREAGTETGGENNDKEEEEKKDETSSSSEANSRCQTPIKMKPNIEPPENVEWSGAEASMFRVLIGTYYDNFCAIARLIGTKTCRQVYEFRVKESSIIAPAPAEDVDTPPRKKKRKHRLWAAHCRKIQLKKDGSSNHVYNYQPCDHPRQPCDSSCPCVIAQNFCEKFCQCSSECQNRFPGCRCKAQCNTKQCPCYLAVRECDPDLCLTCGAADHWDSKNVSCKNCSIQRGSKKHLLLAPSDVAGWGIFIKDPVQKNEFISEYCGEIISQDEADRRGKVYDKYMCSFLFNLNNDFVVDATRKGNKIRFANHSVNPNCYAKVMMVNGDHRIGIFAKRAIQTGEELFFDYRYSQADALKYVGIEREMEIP
T1 sequence (O75530 whole entry partner): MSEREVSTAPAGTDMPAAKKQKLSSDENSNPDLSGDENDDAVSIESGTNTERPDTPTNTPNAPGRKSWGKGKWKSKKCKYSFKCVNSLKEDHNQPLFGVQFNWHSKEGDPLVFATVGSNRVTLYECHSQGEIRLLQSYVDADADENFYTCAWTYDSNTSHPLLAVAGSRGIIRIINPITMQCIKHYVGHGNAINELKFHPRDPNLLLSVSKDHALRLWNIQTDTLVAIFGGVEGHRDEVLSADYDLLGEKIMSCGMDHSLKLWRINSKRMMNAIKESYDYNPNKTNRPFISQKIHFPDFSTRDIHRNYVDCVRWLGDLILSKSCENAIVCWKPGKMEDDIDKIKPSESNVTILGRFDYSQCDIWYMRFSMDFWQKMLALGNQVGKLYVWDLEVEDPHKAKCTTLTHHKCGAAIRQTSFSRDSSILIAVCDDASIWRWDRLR
T1 sequence (Q15022 whole entry partner): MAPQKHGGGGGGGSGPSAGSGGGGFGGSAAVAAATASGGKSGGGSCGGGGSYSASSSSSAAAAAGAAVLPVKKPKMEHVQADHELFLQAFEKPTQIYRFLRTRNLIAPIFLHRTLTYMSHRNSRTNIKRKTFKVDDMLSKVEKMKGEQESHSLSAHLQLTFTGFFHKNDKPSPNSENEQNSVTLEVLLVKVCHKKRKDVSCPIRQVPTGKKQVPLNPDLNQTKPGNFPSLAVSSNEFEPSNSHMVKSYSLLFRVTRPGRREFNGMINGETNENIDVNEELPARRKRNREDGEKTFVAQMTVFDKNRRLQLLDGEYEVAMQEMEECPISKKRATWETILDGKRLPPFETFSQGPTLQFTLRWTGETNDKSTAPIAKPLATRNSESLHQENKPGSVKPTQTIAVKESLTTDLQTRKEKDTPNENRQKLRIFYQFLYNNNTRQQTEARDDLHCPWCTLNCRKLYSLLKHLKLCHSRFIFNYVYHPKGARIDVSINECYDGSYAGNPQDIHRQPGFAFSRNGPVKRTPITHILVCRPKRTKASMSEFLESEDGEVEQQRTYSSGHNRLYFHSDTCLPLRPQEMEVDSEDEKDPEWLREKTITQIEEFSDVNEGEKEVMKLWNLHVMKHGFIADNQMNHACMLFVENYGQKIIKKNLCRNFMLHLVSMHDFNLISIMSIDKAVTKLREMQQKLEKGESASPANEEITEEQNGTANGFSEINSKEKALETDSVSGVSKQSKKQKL

Row | Structure (SMILES) | IC50 (read-out: IC50) [nM] | IC50 [nM]
1 | Cc1cc(C)c(CNC(=O)c2cc(C3CC3)nc3c2c(C)nn3C2CCOCC2)c(=O)[nH]1 [Ex 112, 6-Cyclopropyl-N-[(4,6-dimethyl-2-oxo-1,2-dihydro-3-pyridinyl)methyl]-3-methyl-1-(tetrahydro-2H-pyran-4-yl)-1H-pyrazolo[3,4-b]pyridine-4-carboxamide] | 693 | 
2 | Cc1cc(C)c(CNC(=O)c2cc(N(C)C)nc3c2cnn3C(C)C)c(=O)[nH]1 [Ex 24, 6-(Dimethylamino)-N-[(4,6-dimethyl-2-oxo-1,2-dihydro-3-pyridinyl)methyl]-1-(1-methylethyl)-1H-pyrazolo[3,4-b]pyridine-4-carboxamide] | 873 | 
3 | Cc1cc(C)c(CNC(=O)c2cc(-c3ccc(S(N)(=O)=O)cc3)nc3c2cnn3C(C)C)c(=O)[nH]1 [Ex 50, 6-[4-(Aminosulfonyl)phenyl]-N-[(4,6-dimethyl-2-oxo-1,2-dihydro-3-pyridinyl)methyl]-1-(1-methylethyl)-1H-pyrazolo[3,4-b]pyridine-4-carboxamide] | 81 | 
4 | Cc1cc(C)c(CNC(=O)c2cc(-c3ccncc3)nc3c2cnn3C(C)C)c(=O)[nH]1 [Ex 114, N-[(4,6-Dimethyl-2-oxo-1,2-dihydro-3-pyridinyl)methyl]-1-(1-methylethyl)-6-(4-pyridinyl)-1H-pyrazolo[3,4-b]pyridine-4-carboxamide] | 199 | 
5 | CCCc1cc(C)[nH]c(=O)c1CNC(=O)c1cc(-c2ccncc2)nc2c1cnn2C(C)C [Ex 11, 1-(1-Methylethyl)-N-[(6-methyl-2-oxo-4-propyl-1,2-dihydro-3-pyridinyl)methyl]-6-(4-pyridinyl)-1H-pyrazolo[3,4-b]pyridine-4-carboxamide] |  | 18
6 | Cc1cc(C)c(CNC(=O)c2cc(Nc3ccc4[nH]c(=O)[nH]c4c3)nc3c2cnn3C(C)C)c(=O)[nH]1 [Ex 85, N-[(4,6-Dimethyl-2-oxo-1,2-dihydro-3-pyridinyl)methyl]-1-(1-methylethyl)-6-[(2-oxo-2,3-dihydro-1H-benzimidazol-5-yl)amino]-1H-pyrazolo[3,4-b]pyridine-4-carboxamide] | 31 | 
7 | CCc1cc(C)c(CNC(=O)c2cc(-c3ccncc3)nc3c2cnn3C(C)C)c(=O)[nH]1 [Ex 10, N-[(6-Ethyl-4-methyl-2-oxo-1,2-dihydro-3-pyridinyl)methyl]-1-(1-methylethyl)-6-(4-pyridinyl)-1H-pyrazolo[3,4-b]pyridine-4-carboxamide] | 569 | 
8 | CCCc1cc(C(=O)NCc2c(C)cc(C)[nH]c2=O)c2cnn(C(C)C)c2n1 [Ex 125, N-[(4,6-Dimethyl-2-oxo-1,2-dihydro-3-pyridinyl)methyl]-1-(1-methylethyl)-6-propyl-1H-pyrazolo[3,4-b]pyridine-4-carboxamide] | 2160 | 
9 | Cc1cc(C)c(CNC(=O)c2cc(-c3ccc(C(N)=O)cc3)nc3c2cnn3C(C)C)c(=O)[nH]1 [Ex 94, 6-[4-(Aminocarbonyl)phenyl]-N-[(4,6-dimethyl-2-oxo-1,2-dihydro-3-pyridinyl)methyl]-1-(1-methylethyl)-1H-pyrazolo[3,4-b]pyridine-4-carboxamide] | 103 | 
10 | Cc1cc(C)c(CNC(=O)c2cc(-c3ccc(-c4cn[nH]c4)cc3)nc3c2cnn3C(C)C)c(=O)[nH]1 [Ex 120, N-[(4,6-Dimethyl-2-oxo-1,2-dihydro-3-pyridinyl)methyl]-1-(1-methylethyl)-6-[4-(1H-pyrazol-4-yl)phenyl]-1H-pyrazolo[3,4-b]pyridine-4-carboxamide] | 270 | 
11 | CC(=O)Nc1cccc(-c2cc(C(=O)NCc3c(C)cc(C)[nH]c3=O)c3cnn(C(C)C)c3n2)c1 [Ex 47, 6-[3-(Acetylamino)phenyl]-N-[(4,6-dimethyl-2-oxo-1,2-dihydro-3-pyridinyl)methyl]-1-(1-methylethyl)-1H-pyrazolo[3,4-b]pyridine-4-carboxamide] | 88 | 
12 | CCCc1cc(C)c(CNC(=O)c2cc(-c3ccncc3)nc3c2cnn3C(C)C)c(=O)[nH]1 [Ex 9, 1-(1-Methylethyl)-N-[(4-methyl-2-oxo-6-propyl-1,2-dihydro-3-pyridinyl)methyl]-6-(4-pyridinyl)-1H-pyrazolo[3,4-b]pyridine-4-carboxamide] | 1310 | 
13 | Cc1cc(C)c(CNC(=O)c2cc(C3CC3)nc3c2c(C)nn3C2CCCC2)c(=O)[nH]1 [Ex 106, 1-Cyclopentyl-6-cyclopropyl-N-[(4,6-dimethyl-2-oxo-1,2-dihydro-3-pyridinyl)methyl]-3-methyl-1H-pyrazolo[3,4-b]pyridine-4-carboxamide] | 119 | 

Continued by falling IC50 (read-out: IC50), values first:

Row | IC50 (read-out: IC50) [nM] | IC50 [nM] | Structure (SMILES)
14 | 367 |  | Cc1cc(C)c(CNC(=O)c2cc(C3CC3)nc3c2c(C)nn3C2CCN(C)CC2)c(=O)[nH]1 [Ex 111, 6-Cyclopropyl-N-[(4,6-dimethyl-2-oxo-1,2-dihydro-3-pyridinyl)methyl]-3-methyl-1-(1-methyl-4-piperidinyl)-1H-pyrazolo[3,4-b]pyridine-4-carboxamide]
15 | 273 |  | Cc1cc(C)c(CNC(=O)c2cc(C(C)(C)C)nc3c2c(C)nn3C(C)(C)C)c(=O)[nH]1 [Ex 118, 1,6-Bis(1,1-dimethylethyl)-N-[(4,6-dimethyl-2-oxo-1,2-dihydro-3-pyridinyl)methyl]-3-methyl-1H-pyrazolo[3,4-b]pyridine-4-carboxamide]
16 | 155 |  | COc1cc(-c2cc(C(=O)NCc3c(C)cc(C)[nH]c3=O)c3cnn(C(C)C)c3n2)ccn1 [Ex 59, N-[(4,6-Dimethyl-2-oxo-1,2-dihydro-3-pyridinyl)methyl]-1-(1-methylethyl)-6-[2-(methyloxy)-4-pyridinyl]-1H-pyrazolo[3,4-b]pyridine-4-carboxamide]
17 | 99 |  | Cc1cc(C)c(CNC(=O)c2cc(Nc3ccncc3)nc3c2cnn3C(C)C)c(=O)[nH]1 [Ex 84, N-[(4,6-Dimethyl-2-oxo-1,2-dihydro-3-pyridinyl)methyl]-1-(1-methylethyl)-6-(4-pyridinylamino)-1H-pyrazolo[3,4-b]pyridine-4-carboxamide]
18 | 79 |  | COc1ncc(-c2cc(C(=O)NCc3c(C)cc(C)[nH]c3=O)c3cnn(C(C)C)c3n2)cc1NS(=O)(=O)C1CC1 [Ex 64, 6-[5-[(Cyclopropylsulfonyl)amino]-6-(methyloxy)-3-pyridinyl]-N-[(4,6-dimethyl-2-oxo-1,2-dihydro-3-pyridinyl)methyl]-1-(1-methylethyl)-1H-pyrazolo[3,4-b]pyridine-4-carboxamide]
19 | 56 |  | CNS(=O)(=O)c1ccc(-c2cc(C(=O)NCc3c(C)cc(C)[nH]c3=O)c3cnn(C(C)C)c3n2)cc1 [Ex 42, N-[(4,6-Dimethyl-2-oxo-1,2-dihydro-3-pyridinyl)methyl]-6-{4-[(methylamino)sulfonyl]phenyl}-1-(1-methylethyl)-1H-pyrazolo[3,4-b]pyridine-4-carboxamide]
20 | 55 |  | CCCc1cc(C)[nH]c(=O)c1CNC(=O)c1cc(C2CC2)nc2c1cnn2C(C)C [Ex 13, 6-Cyclopropyl-1-(1-methylethyl)-N-[(6-methyl-2-oxo-4-propyl-1,2-dihydro-3-pyridinyl)methyl]-1H-pyrazolo[3,4-b]pyridine-4-carboxamide]
21 | 25 |  | CC(=O)Nc1ccc(-c2cc(C(=O)NCc3c(C)cc(C)[nH]c3=O)c3cnn(C(C)C)c3n2)cn1 [Ex 69, 6-[6-(Acetylamino)-3-pyridinyl]-N-[(4,6-dimethyl-2-oxo-1,2-dihydro-3-pyridinyl)methyl]-1-(1-methylethyl)-1H-pyrazolo[3,4-b]pyridine-4-carboxamide]
